{"source": "patent US12714747B2", "about": "“Cytotoxic lipid particles targeted to tumor-associated myeloid cells (TAMCS) and synergized with radiation therapy for treating glioblastoma” (priority 2019, dated 2026)", "key": {"TAMCs": {"test_system": "TAMCs", "assay": "Annexin V viability assay of TAMCs", "type": "cell-based, C57BL/6 mice", "conditions": "24 h", "description": "In vitro viability, gene expression, and PD-L1 expression of TAMCs post treatments. In vitro generated TAMCs (8×10^5 cells/well) were seeded in 24-well plate. After 24 h of culture, cells were incubated with αPD-L1-LNP/Dina, αPD-L1-LNP, or free Dina. At predetermined time intervals, the cells were collected and washed, followed by the annexin V assay (BioLegend). RNA isolation was processed using the RNEasy Plus Mini Kit (Qiagen), and total RNA was quantified by Nanodrop (Thermo Scientific). cDNA was synthesized using the iScript cDNA synthesis kit (Bio-Rad), and analyzed by qPCR analysis (Bio-Rad). Selected groups of cells were exposed to irradiation and collected 72 h post treatments for cell circle analysis using BrdU Flow Kit (Fisher) following the manufacturer's protocol."}, "[1]": {"test_system": "glioma-associated immune cells (TAMC, microglia, TIL)", "assay": "Ex vivo TAMC elimination assay", "type": "cell-based, mice", "conditions": "0, 25, 50 nM Dina, 72 h", "protocol": "TAMC targeting and elimination in ex vivo mice and human glioma models. Cell suspension collected from mouse or human samples was plated into 96 well U bottom plate. Cells were pre-blocked with Ultra-LEAF purified anti-mouse CD16/32 antibody or Human TruStain FcX (BioLegend) for 10 min at 4° C., followed by incubation with fluorescence labeled LNPs (0.15 mg lipids/ml) for 1 h at 37° C. in 5% CO2 humidified atmosphere. After gently washed with ice-cold PBS thrice, the cells were collected for staining with viability dye and antibodies. The cellular uptake was analyzed by flow cytometry. The ex vivo TAMC elimination assay was performed using cell suspension collected from mouse glioma samples. Cells were plated into 96 well U bottom plate in 50% complete RPMI and 50% conditioned media collected from GL261 glioma cell culture as aforementioned. Cells were subject to the treatment of αPD-L1/LNP/Dina or free Dina at a Dina concentration of 0, 25, and 50 nM for 72 h, and analyzed by flow cytometry."}, "PD-L1": {"test_system": "PD-L1", "assay": "PD-L1 expression on TAMCs after IFNγ stimulation (RT-qPCR, flow cytometry)", "type": "cell-based, C57BL/6 mice", "conditions": "as low as", "description": "To detect the PD-L1 expression on TAMCs post treatments, in vitro generated TAMCs (8×10^5 cells/well) were seeded in 24-well plate. After 24 h of culture, cells were subject to different treatments (Dina, αPD-L1/LNP, or αPD-L1-LNP/Dina) at a Dina concentration of 25 nM. Selected groups of cells were exposed to IFNγ (PeproTech) stimulation at 10 ng/ml for 24 h. Cells were collected and washed, followed by qPCR analysis or antibody staining for flow cytometry. The effect of irradiation on PD-L1 expression on TAMCs was similarly assessed 72 h post irradiation."}}, "data": [{"smiles": "CCc1cnn2c(NCc3ccc[n+]([O-])c3)cc(N3CCCC[C@H]3CCO)nc12", "note": "[Dina, Dinaciclib]", "values": [{"measurement": "cytotoxicity / viability of TAMCs", "setting": "TAMCs", "result": "comparable cytotoxicity"}, {"measurement": "off-target toxicity to tumor-infiltrating lymphocytes / immune cell populations", "setting": "[1]", "result": "severe off-target cytotoxicity"}, {"measurement": "dose attenuating PD-L1 expression on TAMCs", "setting": "PD-L1", "result": 25, "unit": "nM"}]}]}
